Test in all cases: DTP human tumour cell line panel, 48 h
Assay [1] deals with COLO 205 colon.
For assay [2], the system named is EKVX NSCLC.
Assay [3] concerns HOP-62 NSCLC.
Assay [4] has as its system MALME-3M melanoma.
Assay [5] has as its system OVCAR-4 ovarian.
The test system of assay [6] is RXF 393 renal.
Assay [7] deals with SF-539 CNS.
Assay [8] concerns SK-MEL-28 melanoma.
The test system of assay [9] is SK-OV-3 ovarian.
Assay [10] deals with U251 CNS.

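Following 48 hours of exposure in 96-well plates, responses at five concentrations were used to interpolate endpoints linearly. The concentration for 50% growth inhibition is given as GI50. TGI is the concentration that stops growth completely.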

With `COc1ccc2[nH]c3c(c2c1)[C@H](C)C[C@@H]1C(=O)N(c2ccccc2)C(=O)[C@H]31`, the TGI – broadly, the concentration giving total growth inhibition – in [1] is more than 100 µM; in assay [2], more than 100 µM; in assay [3], 52.5 µM; in assay [4] it was 79.8 µM; in assay [5] it was 45.2 µM; in [6] it was 53.1 µM. Further, the TGI in assay [7] was 41 µM; in assay [8], more than 100 µM; in assay [9], 46 µM; in assay [10], 32.4 µM.

As for `COc1cc(NCCCCCCCNC(C)C)c2nccc(C)c2c1`, the GI50 (in general, the concentration giving 50% growth inhibition) was 2.34 µM in assay [1]; 10.9 µM in assay [2]; 13.8 µM in assay [3]; 17.3 µM in [4]; 4.08 µM in assay [5]; 15.4 µM in [6]. Besides, the GI50 in [7] is 13.7 µM; in [8], 17.7 µM; in assay [9] it was 13.7 µM; in [10], 11 µM. Also, the TGI in assay [1] came out at 6.54 µM; in [2], 26.5 µM; in [3] it was 27.6 µM; in assay [4] it was 34.8 µM; in [5], 15.6 µM; in assay [6], 33.7 µM. Moreover, the TGI worked out at 26.8 µM in assay [7], 32.1 µM in assay [8], 27.1 µM in assay [9] and 24.2 µM in assay [10].

For the compound `C=CC(OCC)(OCC)OCC`, the TGI in [1], in assay [2], in [3], in assay [4], in assay [5] and in assay [6] was more than 100 µM throughout. In addition, the total growth inhibition concentration (TGI) in [7], in assay [8], in [9] and in assay [10] was more than 100 µM each time.

Consider `COc1ccc2c(c1)/C(=C/c1cc(OC)c(OC)c(OC)c1)C(=O)N2`, for which the GI50 in assay [1] is 0.517 µM; in assay [2] it was 11.6 µM; in [3], 0.137 µM; in [4], 0.556 µM; in [6] it was 0.187 µM; in [7], 0.74 µM. For the same compound, the GI50 is more than 100 µM in [8], 0.26 µM in assay [9] and 0.407 µM in [10]. Besides, the concentration for total growth inhibition (TGI) in [1] is 3.03 µM; in assay [2], more than 100 µM; in assay [3] it was more than 47.5 µM; in assay [4], more than 100 µM; in [5] it was more than 100 µM; in [6] it was 0.587 µM. In addition, the TGI in [7] was 19.5 µM; in [8], more than 100 µM; in assay [9], 5.23 µM; in assay [10] it was 16.7 µM.

Regarding `CCCCN(CC)CC(C(C)=O)c1c(O)c2ccccc2oc1=O` (centres undefined), the TGI in assay [1], in assay [2], in assay [3], in [4], in assay [5] and in assay [6] was more than 100 µM in each case. Moreover, the TGI in assay [7], in assay [8], in assay [9] and in [10] was more than 100 µM throughout.

For the compound `O=c1oc2ccccc2[n+]([O-])c1-c1ccccc1`, the TGI in [1], in assay [2], in assay [3], in assay [4], in [5] and in assay [6] was more than 100 µM throughout. Besides, the concentration for total growth inhibition (TGI) in [7], in [8], in assay [9] and in [10] was more than 100 µM each time.

As to `N#CNC(N)=Nc1ccc(Cl)cc1`, the total growth inhibition concentration (TGI) in assay [1], in [2], in [3], in assay [4], in [5] and in assay [6] was more than 100 µM each time. Moreover, the TGI in assay [7], in assay [8], in [9] and in [10] was more than 100 µM throughout.

As for `C/C(=N/NC(=O)C[N+](C)(C)C)C(CN(C)C)C(=O)Nc1ccccc1` (centres undefined), the TGI in assay [1], in assay [2], in assay [3], in assay [4], in [5] and in [6] was more than 100 µM each time. Moreover, the total growth inhibition concentration (TGI) in [7], in [8], in [9] and in assay [10] was more than 100 µM throughout.

As for `CN(C)C(=S)/N=c1\ssc(=S)n1Cc1ccncc1`, the total growth inhibition concentration (TGI) in assay [1] is more than 100 µM; in assay [2], more than 100 µM; in assay [3], 92.2 µM; in assay [4] it was 50.2 µM; in assay [5] it was 95.2 µM; in assay [6], 70 µM. The TGI in [7] was 48.4 µM; in [8], more than 100 µM; in [9] it was 72.2 µM; in assay [10] it was 39 µM.

Consider `Cc1cc(N(CCC#N)CCC#N)ccc1/C=C(\NC(=O)/C=C/c1ccccc1)C(=O)NN`, for which the TGI in assay [1] is more than 100 µM; in assay [2] it was more than 100 µM; in assay [3], more than 90.3 µM; in [4], more than 100 µM; in assay [5], more than 100 µM; in assay [6], more than 92.3 µM. For the same compound, the TGI in assay [7] is more than 100 µM; in assay [8], more than 100 µM; in [9], more than 82.6 µM; in assay [10], more than 78 µM.

On to `CC(=O)OCC1OC(N2C(=O)C(=O)c3ccccc32)C(OC(C)=O)C(OC(C)=O)C1OC(C)=O` (centres undefined), for which the TGI in [1], in assay [2], in assay [3], in assay [4], in assay [5] and in assay [6] was more than 100 µM in each case. For the same compound, the TGI in assay [7], in assay [8], in assay [9] and in assay [10] was more than 100 µM throughout.
